{
  "source": "patent US8871900B2",
  "about": "“Fibroblast growth factor (FGF) analogs and uses thereof” (University of Rochester, priority 2008, dated 2014)",
  "key": {"[1]": {"assay": "Blood cell counts after 4 or 5 Gy TBI", "assay_type": "in vivo, mouse", "description": "In parallel, the leucocytes and red cells were increased as compared to vehicle-treated mice that received the same IR dose (FIGS. 17C and D)."}, "[2]": {"assay": "Plasma endotoxin after sub-TBI (tachypleus amebocyte lysate kit)", "assay_type": "in vivo, mouse (Balb/c, C57BL/6)", "conditions": "Balb/c, 10.5 Gy sub-TBI, 3.5 days post-IR; FGF-P treated (vehicle 3.32, normal 0.45)", "experimental": "Some studies have employed bacterial culture of liver samples. Bacterial translocation occurs due to mucosal barrier changes (1) at the level of the basement membrane and (2) bowel mucous volume and composition. The most reliable and most clinically applicable method to measure bacterial translocation is the endotoxin assay. The level of plasma endotoxin 3.5 days post-IR was measured with a commercialized kit that utilized tachypleus amebocyte lysate to sensitively quantitate endotoxin at extremely low levels (<0.01 EU/ml); and 4) body weight (BW): poor nutrition and water absorption will result in reduced body weight. The rate and severity of weight loss, as well as the pace of body weight recovery, will be measured.\n(§1) 2) A standard scoring scale was used to evaluate stool formation (diarrhea). The bowel was extracted from the abdomen and visually inspected. Formed stool was easily distinguished from semi-solid and liquid stool as it passed from the ascending to descending colon. FIGS. 7B and 7C show the irradiated bowel in controls compared with FGF-P-treated Balb/c mice. The FGF-P was given at a dose of 2 mg/kg im for three daily doses beginning 15 min after irradiation. Animals were sacrificed 3.5 days after 10.5 Gy sub-TBI."}, "[3]": {"tested_on": "irradiated human cells", "assay": "Responsiveness of irradiated human cells", "assay_type": "cell-based"}, "[4]": {"assay": "Stool hemoccult score after sub-TBI", "assay_type": "in vivo, mouse (Balb/c, C57BL/6)", "conditions": "Balb/c, 12.5 Gy sub-TBI; FGF-P 2 mg/kg im 15 min post irradiation; Amifostine iv 30 min pre-irradiation; P<0.05", "description": "There are commonly employed assays known to be relevant to both mouse and man for determining relative endpoints. These include: 1) stool blood: mucosal barrier breakdown is associated with bleeding of the small bowel; therefore, a hemoccult analysis with a commercial kit (BD Cat #64151) was used in the preliminary data at 3 days after sub-TBI. The time course and frequency of GI bleeding; 2) stool formation: the GI functions of digestion, absorption of nutrition and water, and the regular movement of intestinal muscle are required for formation of normal stool can be measured. All these functions can be upset by radiation. For example, loss of villi leads to decreased fluid absorption and diarrhea. The colon was excised and examined visually for the presence of formed stool at 3.5 days post-IR; 3) endotoximia: bacterial translocation can occur at early times following gastrointestinal radiation exposure.\nas §1, with “Animals were sacrificed 3.5 days after 10.5 Gy sub-TBI.” left out"}, "[5]": {"assay": "Stability of FGF-P", "assay_type": "physicochemical"}, "[6]": {"tested_on": "BM cells", "assay": "3H-TdR incorporation of normal and irradiated (0.5 Gy) BM cells", "assay_type": "cell-based, mouse", "experimental": "To determine if BM cells damaged by IR still responded to FGF-P, cells were plated in 96 round-bottom wells with serum-free ultraDoma-PF media and equally divided into two parts; one was not irradiated as control, and the other was irradiated with 0.5 Gy. They were then treated with equal amount of test agents within 1 hour post-IR. The following day, 0.2 uCi/well of ^3H-TdR was added and they were further cultured for 4 days before harvesting with a 96 well automatic harvester. […] There was no response to EPO."}, "[7]": {"tested_on": "MCP-1, IL-6, TNFα", "assay": "Plasma inflammatory molecules after sub-TBI (Luminex bead array)", "assay_type": "in vivo, mouse (Balb/c)", "conditions": "Balb/c, 12 Gy sub-TBI, 3.5 days; FGF-P 2 mg/kg at 10 min post-IR and daily for two days", "experimental": "Bead array technology has been developed to facilitate the study of cytokine expression profiles in normal tissues following radiation. Bead arrays have several advantages over ELISA. First, mice have a limited blood volume (0.3-0.4 ml of plasma/mouse). Each ELISA typically requires approximately 0.1 ml and thus only a limited number of assays are possible. Secondly, the time required to perform ELISAs one by one stresses the system in a large experiment and would be difficult to perform in the field in case of a radiological event. The Luminex bead array technology was used. The paired monoclonal antibodies, the highly-purified protein standards, and the more than 50 different cytokinespecific beads were purchased. In these studies, Balb/c mice received 12 Gy sub-TBI and then im injection of vehicle alone (0.2 ml of saline), FGF-P (2 mg/kg at 10 min post-IR and daily for two days), or Amifostine (200 mg/kg, either 30 min before IR, or 10 min after IR). The samples were collected 3.5 days after IR.\nAll three of these cytokines are associated with increased severity and progression of radiation-related inflammatory toxicity in mouse and man."}, "[8]": {"tested_on": "BM progenitors", "assay": "BM progenitors (CD24, CD34) by flow cytometry after in vivo FGF-P", "parameters": "species or system mouse", "conditions": "in vivo administration following radiation", "description": "To determine if the stem cells are better regenerated, freshly harvested BM cells were stained with CD24, CD34 (two critical markers for BM multi-potential progenitors) and TER119 (a marker for reticulcoytes), and then analyzed with flow cytometry. […] This is consistent with the above in vitro data. After IR, there appears a very active generation of BM progenitors, a rebound phenomenon, similar to the intestine crypts that actively regenerate following IR to compensate for lost villi."}, "[9]": {"tested_on": "GM-CSF", "assay": "Plasma cytokine arrays after IR", "assay_type": "in vivo, mouse", "conditions": "post-IR", "description": "A 96 cytokine membrane array (RayBioTech, Norcross, Ga.) and a Luminex Multiple cytokine beads array (Panomics, Fremont, Calif.) were used to determine the alteration of a panel of plasma cytokines after IR and the effect of FGF-P on reversing the altered pattern. […]-P also exerts homeostatic effect to keep cytokine level towards normal balance."}, "[10]": {"tested_on": "BM cells", "assay": "BM cell growth in round-bottom 96 well 2 D culture (CyQUANT)", "assay_type": "cell-based, mouse (Balb/c)", "conditions": "FGF-P 500 ng/ml", "description": "Survival of ARS depends on rapid reconstitution of hematopoiesis after IR-induced myelosuppression. […] However, the timing and mechanism of effect on BM stem cells is unknown. Also unclear are the number of FGFRs on hematopoietic stem cells (HSCs) and their role in reconstitution after IR. […] To characterize the effects of FGF-P on BM, the study approach was to obtain fresh BM (including both HSCs and MSCs) from Balb/c mice, and culture it under varying conditions (3 D culture or 2 D round-bottom well) in triplicate for 1-3 weeks. The BM cells were stimulated with FGF-P at different doses (as test) or with EPO, TPO, GM-CSF or native FGF2 (as a positive control). The cultures were examined using several methods including colony count, photography, CyQUANT® assay and ^3H-TdR incorporation."}, "[11]": {"conditions": "vs vehicle-treated mice, same IR dose"}},
  "note": "“Also recorded” adds a separate entry of the source. Peptide text beside a SMILES is read from it.",
  "data": [
    {"compound": "CC(C)C[C@H](NC(=O)[C@H](C)NC(=O)[C@@H](NC(=O)[C@H](Cc1ccc(O)cc1)NC(=O)[C@H](Cc1c[nH]c2ccccc12)NC(=O)[C@H](CO)NC(=O)[C@H](CO)NC(=O)[C@H](Cc1ccc(O)cc1)NC(=O)[C@H](CCCCN)NC(=O)[C@H](CCCNC(=N)N)NC(=O)[C@H](CO)NC(=O)[C@H](CCCNC(=N)N)NC(=O)[C@H](Cc1ccc(O)cc1)NC(=O)[C@@H](N)CS)C(C)C)C(=O)N[C@@H](CCCCN)C(=O)N[C@@H](CCCNC(=N)N)C(=O)N[C@@H](CS)C(=O)O", "note": "[FGF-P, CYRSRKYSSWYVALKRC] (H-CYRSRKYSSWYVALKRC-OH; N-terminus and C-terminus assumed)", "values": [
      {"measurement": "platelet counts", "setting": "[1]; 4 or 5 Gy TBI", "value": "accelerated recovery of platelet counts"},
      {"measurement": "leucocytes", "setting": "[1]; [11]", "value": "increased"},
      {"measurement": "red cells", "setting": "[1]; [11]", "value": "increased"},
      {"measurement": "plasma endotoxin level (mean)", "setting": "[2]", "value": 2.12, "unit": "EU/ml"},
      {"measurement": "responsiveness of irradiated human cells", "setting": "[3]", "value": "maintain their responsiveness to FGF-P"},
      {"measurement": "stool hemoccult score", "setting": "[4]", "value": "reduced stool hemoccult score"},
      {"measurement": "enzyme resistance", "setting": "[5]; dry powder", "value": "enzyme-resistant as a dry powder"},
      {"measurement": "stability", "setting": "[5]; severe conditions / liquid, boiling", "value": "stable as a liquid even with boiling; also recorded: stable under severe conditions, for example to boiling"},
      {"measurement": "effectiveness of boiled FGF-P", "setting": "[5]; stability test, boiled vs original form", "value": "as effective as the original form"},
      {"measurement": "response of irradiated BM cells", "setting": "[6]; 0.5 Gy, treated within 1 hour post-IR, 3H-TdR", "value": "in the same fashion as normal BM cells"},
      {"measurement": "order of responsiveness", "setting": "[6]; 3H-TdR incorporation, serum-free media", "value": "FGF-P (250-500 ng/ml)>native FGF2 (50 ng/ml), GM-CSF and TPO (100 ng/ml)"},
      {"measurement": "dose dependence of stimulatory effect", "setting": "[6]; normal and 0.5 Gy irradiated BM cells", "value": "dose-dependent"},
      {"measurement": "plasma MCP-1, IL-6 and TNFα", "setting": "[7]", "value": "normalized or near-normalized these factors"},
      {"measurement": "number of BM progenitors (CD24, CD34)", "setting": "[8]", "value": "increased the number of BM progenitors following radiation"},
      {"measurement": "plasma GM-CSF", "setting": "[9]", "value": "increased the IR-reduced GM-CSF"},
      {"measurement": "growth of BM cells", "setting": "[10]", "value": "stimulated the growth of BM cells in a similar pattern as TPO, EPO and GM-CSF"}
    ]}
  ]
}
